Results reported in patent US9206177B2, “Substituted dimeric quinazoline-2,4-diones as FGF receptor agonists” (Sanofi, priority 2011, dated 2015).

How the values were obtained:
[1] = tested on: human venous endothelial cells (HUVECs); assay: In vitro angiogenesis model (pseudotubule length of HUVECs on matrigel/collagen); assay type: cell-based; parameters: % activation with respect to FGF2 (in vitro): concentration or dose not given beside the values; settings: in vitro
Experimental: In Vitro Angiogenesis Model
The products are tested for their ability to cause rearrangement of human venous endothelial cells (HUVECs) on matrigel (Becton dickinson 356230) diluted in collagen (rat tail collagen, type I: Becton dickinson 354236). After 24 hours, the cells are observed under a microscope with a ×4 objective and the length of the pseudotubules is measured by means of an image analyser (BIOCOM-logiciel Visiolab 2000).

mice = assay: Sponge angiogenesis model (haemoglobin content of implanted cellulose sponge); assay type: in vivo; settings: at a concentration of 300 μM
Source text: Sponge Angiogenesis Model
The sponge angiogenesis model is an adaptation of the technique of Andrade et al. [Andrade S P, Machado R., Teixeiras, Belo A V, Tarso A M, Beraldo W T—Sponge-induced angiogenesis in mice and the pharmacological reactivity of the neovasculature quantitated by fluorimetric method, Microvascular Research, 1997, 54: 253-61.]
The mice used are BalbC females from Charles River Laboratory, 7 to 10 weeks old. The animals are anaesthetized by intraperitoneal injection of a xylazine/ketamine mixture (1 mg/kg each in 0.9% NaCl). The animal's back is shaved and disinfected with hexomedine. A subcutaneous 5 ml pocket of air is made on the animal's back with sterile air. An incision is then made (approximately 1 cm) on the top of the animal's back in order to implant the sponge in the pocket. The biocompatible cellulose sponge (Cellspon, Interchim, 10 mm in diameter) was sterilized beforehand (autoclave 20 min at 120° C.) and is impregnated with 50 μl of sterile solution containing the test product. Suturing is performed by inserting two 9-mm stainless steel autoclip staples (Subra). The wound is again disinfected with hexomedine. […]
To assay the haemoglobin, 50 μl of each sample are deposited in a 96-well plate, in duplicate. […] The OD values are read on a spectrophotometer at 405 nm, using the Biolise software (Tecan, France). […]

## Cc1c(-c2ccc(OCC(=O)NCCCCCCNC(=O)COc3ccc(-c4c(C)c(C(=O)c5ccc6[nH]c(=O)n(CC(=O)O)c(=O)c6c5)n5ccccc45)cc3)cc2)c2ccccn2c1C(=O)c1ccc2[nH]c(=O)n(CC(=O)O)c(=O)c2c1 [Compound 4]
[1]
  EC50: < 1 nM
[1]; relative to FGF2
  % activation with respect to FGF2 (in vitro): 57%
mice
  active on the in vitro angiogenesis model (sentence stands under the sponge angiogenesis model): active
